Results taken from patent publication US20150175655A1 (priority 2012, published 2015).
Read-outs that look alike come from different tables or passages of the source.

Columns and labels:
[1] = rcm bond, Zhan 1B, DCE
[2] = tested on: genotype 1a stable HCV replicon (H77 strain) in Huh-7-derived cells; test: Stable subgenomic HCV replicon EC50, genotype 1a (Renilla luciferase); type: cell-based; settings: Hepatitis C virus, stable replicon genotype 1a, 72 h, read-out: EC50 1A RLUC
Description: (§1) Antiviral potency (EC50) was determined in both stable subgenomic HCV replicon cell lines and transient-transfected HCV replicon cells. The term half maximal effective concentration (EC50) refers to the concentration of a drug which induces a response halfway between the baseline and maximum after the exposure time specified below.
(§2) Stable subgenomic HCV replicons for genotype 1a, 1 b, 2a, 3a, and 4a were established in Huh-7-derived cells as described by Lohmann et al (Lohmann V, Korner F, Koch J, et al Replication of subgenomic hepatitis C virus RNAs in a hepatoma cell line. Science 1999; 285:119-3). Each stable cell line contains a bicistronic HCV replicon that encodes a humanized Renilla luciferase (hRLuc) reporter gene fused to a selectable neomycin-resistance gene, followed by an EMCV IRES and the NS3-NS5B coding region of HCV. […] Luciferase activity was measured as a marker for intracellular HCV replication levels.
(§3) The genotype 1a stable replicon was derived from the H77 HCV strain and contained adaptive mutations P1496L and S2204I. The genotype 1 b stable replicon was derived from the Cont HCV strain and contained adaptive mutations E1202G, T1280I, and K1846T. […] The genotype 3a stable replicon was derived from the S52 HCV strain and contained adaptive mutations P1121 L, A1198T and S2210I (equivalent to S2204I in genotype 1). The genotype 4a stable replicon was derived from the ED43 HCV strain and contained adaptive mutations Q1691R and S2204I. All replicon cell lines were propagated in Huh-7-derived cells and maintained in Dulbecco's modified Eagle's Medium (DMEM) supplemented with 10% fetal bovine serum (FBS) and 0.5 mg/mL G418.
(§4) To perform EC50 assays, cells from each HCV replicon were dispensed into 384-well plates. Compounds were dissolved in DMSO at a concentration of 10 mM and diluted in DMSO using an automated pipetting instrument. Three-fold serially diluted compounds were directly added to the cells using an automated instrument. […] Seventy-two hours later, cells were lysed and Renilla luciferase activity were quantified as recommended by the manufacturer (Promega-Madison, Wis.). Non-linear regression was performed to calculate EC50 values.

[3] = tested on: genotype 1b stable HCV replicon in Huh-7-derived cells; test: Stable subgenomic HCV replicon EC50, genotype 1b (Renilla luciferase); type: cell-based; settings: Hepatitis C virus, stable replicon genotype 1b, 72 h, read-out: EC50 1B RLUC
Description: as §1, §2, §3, §4

[4] = tested on: genotype 2a stable HCV replicon (JFH-1 strain) in Huh-7-derived cells; test: Stable subgenomic HCV replicon EC50, genotype 2a (Renilla luciferase); type: cell-based; settings: Hepatitis C virus, stable replicon genotype 2a, 72 h, read-out: EC50 2A RLUC
Description: as §1, §2, §3, §4

[5] = tested on: genotype 3a stable HCV replicon (S52 strain) in Huh-7-derived cells; test: Stable subgenomic HCV replicon EC50, genotype 3a (Renilla luciferase); type: cell-based; settings: Hepatitis C virus, 72 h, read-out: EC50 3A RLUC
Description: as §1, §2, §3, §4

[6] = tested on: genotype 4a stable HCV replicon (ED43 strain) in Huh-7-derived cells; test: Stable subgenomic HCV replicon EC50, genotype 4a (Renilla luciferase); type: cell-based; settings: Hepatitis C virus, 72 h, read-out: EC50 4A RLUC
Description: as §1, §2, §3, §4

[7] = tested on: genotype 1a (H77) wild-type transient HCV replicon in Huh-7-derived cells; test: Transient-transfected HCV replicon EC50, genotype 1a wild type; type: cell-based; settings: Hepatitis C virus; transient-transfected replicon genotype 1a wild type, 72 h; read-out: EC50 1A WT
[8] = tested on: genotype 1a transient HCV replicon, NS3/4a protease inhibitor resistant variant R155K, in Huh-7-derived cells; test: Transient-transfected HCV replicon EC50, genotype 1a R155K; type: cell-based; settings: Hepatitis C virus, 72 h, read-out: EC50 1A R155K
[9] = tested on: genotype 1b (Con1) wild-type transient HCV replicon in Huh-7-derived cells; test: Transient-transfected HCV replicon EC50, genotype 1b wild type; type: cell-based; settings: Hepatitis C virus; transient-transfected replicon genotype 1b wild type, 72 h; read-out: EC50 1B WT
[10] = tested on: genotype 1b transient HCV replicon, NS3/4a protease inhibitor resistant variant D168A, in Huh-7-derived cells; test: Transient-transfected HCV replicon EC50, genotype 1b D168A; type: cell-based; settings: Hepatitis C virus, 72 h, read-out: EC50 1B D168A

Row | SMILES | ring closure, yield of all isomers ([1]; from C=CCCC[C@@H]1C[C@H]1OC(=O)N[C@H](C(=O)N1C[C@H](Oc2nc3cc(OC)ccc3nc2C=C)[C@@H](CCC)[C@H]1C(=O)OC(C)(C)C)C(C)(C)C, 5.0 mM, 100.0 °C, 1.0 h) | ring closure, yield of all isomers ([1]; from C=CCCC[C@@H]1C[C@H]1OC(=O)N[C@H](C(=O)N1C[C@H](Oc2nc3cc(OC)ccc3nc2C=C)[C@@H](C)[C@H]1C(=O)OC(C)(C)C)C1(C)CCCC1, 5.03 mM, 83.0 °C, […]) | EC50 [2] | EC50 [3] | EC50 [4] | EC50 [5] | EC50 [6] | EC50 [7] | EC50 [8] | EC50 [9] | EC50 [10]
1 | CCC[C@@H]1[C@@H]2CN(C(=O)[C@H](C(C)(C)C)NC(=O)O[C@@H]3C[C@H]3CCCC=Cc3nc4ccc(OC)cc4nc3O2)[C@@H]1C(=O)OC(C)(C)C | 80.7% | – | – | – | – | – | – | – | – | – | –
2 | COc1ccc2nc3c(nc2c1)O[C@H]1CN(C(=O)[C@H](C2(C)CCCC2)NC(=O)O[C@@H]2C[C@H]2CCCC=C3)[C@H](C(=O)OC(C)(C)C)[C@@H]1C | – | 78% | – | – | – | – | – | – | – | – | –
3 | CC[C@@H]1[C@@H]2CN(C(=O)[C@H](C(C)(C)C)NC(=O)O[C@]3(C(F)(F)F)CCC[C@H]3CCCCCc3nc4ccc(OC)cc4nc3O2)[C@@H]1C(=O)N[C@]1(C(=O)NS(=O)(=O)C2CC2)C[C@H]1C(F)F [Example 11, (7S,10S,11S,12R)-7-tert-butyl-N-[(1R,2R)-1-[(cyclopropylsulfonyl)carbamoyl]-2-(difluoromethyl)cyclopropyl]-11-ethyl-16-methoxy-5,8-dioxo-3aR-(trifluoromethyl)-1,2,3,3a,5,6,7,8,11,12,20,21,22,23,24,24a-hexadecahydro-10H-9,12-methanocyclopenta[18,19][1,10,3,6]dioxadiazacyclononadecino[11,12-b]quinoxaline-10-carboxamide] | – | – | 0.028 µM | 0.017 µM | 0.034 µM | 1.16 µM | 0.019 µM | 0.02 µM | 0.159 µM | 0.0094 µM | 0.605 µM
4 | CC[C@@H]1[C@@H]2CN(C(=O)[C@H](C(C)(C)C)NC(=O)O[C@@]3(C(F)(F)F)CCC[C@H]3CCCCCc3nc4ccc(OC)cc4nc3O2)[C@@H]1C(=O)N[C@]1(C(=O)NS(=O)(=O)C2CC2)C[C@H]1C(F)F [Example 12, (7S,10S,11S,12R)-7-tert-butyl-N-[(1R,2R)-1-[(cyclopropylsulfonyl)carbamoyl]-2-(difluoromethyl)cyclopropyl]-11-ethyl-16-methoxy-5,8-dioxo-3a5-(trifluoromethyl)-1,2,3,3a,5,6,7,8,11,12,20,21,22,23,24,24a-hexadecahydro-10H-9,12-methanocyclopenta[18,19][1,10,3,6]dioxadiazacyclononadecino[11,12-b]quinoxaline-10-carboxamide] | – | – | 0.034 µM | 0.018 µM | 0.025 µM | 2.01 µM | 0.021 µM | 0.014 µM | 0.283 µM | 0.0057 µM | 0.64 µM
5 | COc1ccc2nc3c(nc2c1)O[C@H]1CN(C(=O)[C@H](C(C)(C)C)NC(=O)O[C@@H]2CCN(C(C)=O)C2CCCCC3)[C@H](C(=O)N[C@]2(C(=O)NS(=O)(=O)C3(C)CC3)C[C@H]2C(F)F)[C@@H]1C (stereo partly drawn) [Example 80, (3aR,7S,10S,11S,12R)-1-acetyl-7-tert-butyl-N-[(1R,2R)-2-(difluoromethyl)-1-{[(1-methylcyclopropyl)sulfonyl]carbamoyl}cyclopropyl]-16-methoxy-11-methyl-5,8-dioxo-1,2,3,3a,5,6,7,8,11,12,20,21,22,23,24,24a-hexadecahydro-10H-9,12-methanopyrrolo[2′,3′:18,19][1,10,3,6]dioxadiazacyclononadecino[11,12-b]quinoxaline-10-carboxamide] | – | – | – | – | – | ≥ 44.4 µM | – | – | – | – | –
